Experiment [1] relates to VEGFR2. The experiment in a line: Real-time quantitative RT-PCR of VEGFR2 expression in HUVECs. It is filed as cell-based, human. The note with it: 3-D fibrin gel culture of HUVECs (7 d); anti-DLL4 antibody 5 μg/ml, DBZ 0.08 μM. The protocol: RNA extraction and Real-time quantitative RT-PCR. Extraction of total RNA from HUVECs in 2-D culture was done using RNeasy® Mini Kit (Qiagen) as per instructions of the manufacturer. To extract total RNA from HUVECs growing in fibrin gels, fibrin gels were treated with 10× trypsin-EDTA (Gibco) for 5 min to remove the top layer fibroblasts, followed by neutralization with 10% FBS in PBS. The gel clots were then removed from tissue culture wells and subjected to centrifugation (10K for 5 min) in microtubes to remove excessive fluid. The resulting gel “pellets” were lysed with lysis buffer (RNeasy® Mini Kit), and further processed as with HUVECs in 2-D culture. The quality of RNA was assessed using RNA 6000 Nano Chips and the Agilent 2100 Bioanalyzer (Agilent Technologies). Real-time quantitative RT-PCR reactions were done in triplicate using 7500 Real Time PCR System (Applied Biosystems). Human GAPDH was used as reference gene for normalization. The expression levels are expressed as the mean (±SEM) fold mRNA changes relative to control from 3 separate determinations. The forward and reverse primer and probe sequences for VEGFR2, TGFβ2 and GAPDH were as follows.
Therefore, while VEGF can act upstream of DLL4/Notch pathway, DLL4/Notch is capable of fine-tuning the response through negatively regulating VEGFR2 expression.

For experiment [2], the target named is DLL4 (Homo sapiens, UniProt Q9NR61). The experiment in a line: ELISA binding to coated purified recombinant proteins. The note with it: plates coated with recombinant protein 1 μg/ml. Here is the method:
(§1) 96-well Nunc Maxisorp plates were coated with purified recombinant proteins as indicated (1 μg/ml). […] Bound antibodies were detected with anti-human antibody HRP conjugate using TMB as substrate and OD 450 nm absorbance measurement. Anti-HER2 and recombinant ErbB2-ECD were used as assay control (FIG. 11b).

For experiment [3], the target named is Jag1 (Homo sapiens, UniProt P78504). The description is as above. The note with it: plates coated with recombinant protein 1 μg/ml. Here is the method: as §1
In experiment [4] the target is T1, DLL1 (Homo sapiens, UniProt O00548).
T1 sequence (O00548 18-723): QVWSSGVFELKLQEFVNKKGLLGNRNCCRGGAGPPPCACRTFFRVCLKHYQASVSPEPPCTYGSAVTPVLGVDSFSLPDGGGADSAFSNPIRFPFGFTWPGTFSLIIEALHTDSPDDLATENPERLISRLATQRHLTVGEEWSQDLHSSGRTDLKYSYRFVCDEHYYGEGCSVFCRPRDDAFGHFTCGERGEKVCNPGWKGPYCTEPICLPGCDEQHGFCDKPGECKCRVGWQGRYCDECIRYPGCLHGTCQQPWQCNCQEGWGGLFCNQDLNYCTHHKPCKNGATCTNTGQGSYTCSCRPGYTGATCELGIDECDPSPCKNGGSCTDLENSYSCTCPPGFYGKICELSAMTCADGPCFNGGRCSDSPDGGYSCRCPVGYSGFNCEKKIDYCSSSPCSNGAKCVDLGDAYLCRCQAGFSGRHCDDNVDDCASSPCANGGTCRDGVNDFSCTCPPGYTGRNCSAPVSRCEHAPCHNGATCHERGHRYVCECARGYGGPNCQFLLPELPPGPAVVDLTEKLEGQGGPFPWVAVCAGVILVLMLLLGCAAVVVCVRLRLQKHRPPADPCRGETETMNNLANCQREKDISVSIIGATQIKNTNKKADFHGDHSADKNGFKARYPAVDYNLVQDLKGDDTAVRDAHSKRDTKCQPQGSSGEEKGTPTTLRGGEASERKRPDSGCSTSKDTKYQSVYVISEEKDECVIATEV
Described as above. As to conditions: plates coated with recombinant protein 1 μg/ml. Here is the method:
as §1

The target of experiment [5] is mouse DLL4 (Mus musculus, UniProt Q9JI71). Described as above. As to conditions: plates coated with recombinant protein 1 μg/ml. The protocol:
as §1

The subject of experiment [6] is mouse lung cancer LL2 cells. The experiment in a line: Tumor model LL2. The note with it: 5 mg/kg, IP, twice weekly after establishment of the tumors. Type of experiment: in vivo. The protocol:
(§2) Tumor models. Beige nude female mice of 8- to 10-week-old were used. To obtain subcutaneous tumors, mice were injected with 0.1 ml cell suspension containing 50% matrigel (BD Bioscience) into the right posterior flank. 5×10^6 human colon cancer HM7 cells, 10×10^6 human colon carcinoma Colo205 cells, 10×10^6 human lung carcinoma Calu6 cells, 10×10^6 human lung carcinoma MV-522 cells, 10×10^6 mouse leukemia WEHI-3 cells, 10×10^6 mouse lymphoma EL4 cells, 10×10^6 human ovarian cancer SK-OV-3 X1 cells, 10×06 mouse lung cancer LL2 cells, 10×10^6 leukemia/lymphoma EL4 cells, or 10×10^6 non-small lung cancer H1299 cells were injected into each mouse. For human melanoma MDA-MB-435 model, mice were injected into the mammary fat pad with 0.1 ml cell (5×10^6) suspension containing 50% matrigel. […] For the following tumor models, each test mouse received a subcutaneous tumor fragment (1 mm^3) implanted in the right flank: non-small lung cancer SKMES-1, human breast cancer MX-1, human colorectal cancer SW620 and human adenocarcinoma LS174T. The tumor growth was quantitated by caliper measurements. Tumor volume (mm^3) was determined by measuring the length (l) and width (w) and calculating the volume (V=lw2/2). 10 to 15 animals were included in each group. Statistical comparison of treatment groups was performed using two-tailed Student's t-test. […]

The subject of experiment [7] is human colorectal cancer SW620. The experiment in a line: Tumor model SW620. Type of experiment: in vivo, mouse. The note with it: 5 mg/kg, IP, twice weekly after establishment of the tumors. The protocol:
as §2

Experiment [8] has as its system human melanoma MDA-MB-435. The experiment in a line: Tumor model MDA-MB-435 (mammary fat pad). Type of experiment: in vivo, mouse. As to conditions: treatment started 14 days post tumor cell injection. The protocol: as §2

The text below walks through data of patent publication US7803377B2, “Anti-DLL4 antibodies and methods using same” (Genentech, Inc., priority 2006, dated 2010).

Chain of mouse DLL4 (Q9JI71 27-686): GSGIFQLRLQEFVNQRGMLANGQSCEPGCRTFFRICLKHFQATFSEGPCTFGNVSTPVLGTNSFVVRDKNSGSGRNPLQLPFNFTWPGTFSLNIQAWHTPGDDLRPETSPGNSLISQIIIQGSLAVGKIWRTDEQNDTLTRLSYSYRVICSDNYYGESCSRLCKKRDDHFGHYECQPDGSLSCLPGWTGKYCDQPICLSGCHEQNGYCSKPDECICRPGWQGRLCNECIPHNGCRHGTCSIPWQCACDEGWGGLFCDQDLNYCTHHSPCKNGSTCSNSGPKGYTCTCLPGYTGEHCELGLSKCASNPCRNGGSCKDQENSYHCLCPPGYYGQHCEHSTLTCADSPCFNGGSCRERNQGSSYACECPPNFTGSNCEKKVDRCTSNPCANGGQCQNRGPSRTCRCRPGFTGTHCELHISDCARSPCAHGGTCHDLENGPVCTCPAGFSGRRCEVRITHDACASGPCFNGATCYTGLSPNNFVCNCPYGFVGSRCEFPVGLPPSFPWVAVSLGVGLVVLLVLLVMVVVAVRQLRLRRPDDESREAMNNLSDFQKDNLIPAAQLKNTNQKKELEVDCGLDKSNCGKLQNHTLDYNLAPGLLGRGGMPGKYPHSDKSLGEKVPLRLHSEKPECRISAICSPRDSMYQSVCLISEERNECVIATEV

Regarding “YW26.82: affinity matured anti-DLL4 monoclonal antibody; HVR-H1/H2/H3 SEQ ID NO:1, 8, 9; HVR-L1/L2/L3 SEQ ID NO:10, 11, 18”, the “VEGFR2 expression on Notch blockade” value in experiment [1] is “upregulation of VEGFR2”. Besides, the “binding by ELISA” value is on record as “bound” in experiment [2], “did not delectably bind” in experiment [3], “did not delectably bind” in experiment [4] and “bound” in experiment [5]. The “tumor growth, single agent” value in experiment [6] and in experiment [7] was “inhibited tumor growth alone” in each case. The tumor growth entry in experiment [8] is listed as “inhibited tumors growing in mouse mammary fat pads”.
